{
  "source": "patent US20240366648A1",
  "about": "“NAD-AUGMENTATION THERAPY FOR PARKINSON'S DISEASE” (Vestlandets Innovasjonsselskap AS (VIS), priority 2021, published 2024)",
  "key": {"NAD metabolome in CSF": {"system": "NAD metabolome in CSF", "assay": "CSF metabolomics (LC-MS)", "format": "in vivo, human", "conditions": "all NR-recipients; oral NR 1000 mg/day, 30 days", "protocol": "Biological material was collected at both visits, following a minimum 6-hour fasting and within 6 hours after study drug intake for visit 2. Sampling included whole blood, serum, peripheral blood mononuclear cells (PBMCs), cerebrospinal fluid (CSF) and muscle biopsy. Lumbar puncture was performed according to standard clinical procedures to collect 10 ml CSF. Needle biopsy of the vastus lateralis muscle was performed using a Bard Magnum biopsy gun (BD©, United States) and 12G×10 cm biopsy needles. Muscle biopsies were immediately dissected to remove any non-muscle tissue (e.g., fat or fascia) and snap-frozen in liquid nitrogen.\nThe extraction of metabolites from CSF samples was carried out as follows: 400 μl of each sample were mixed with 1600 μl of ice-cold UHPLC grade methanol. […] Recovery rate was tested for several relevant nucleotides and determined to be 93-96%, depending on the nucleotide.\nMetabolite analysis was conducted using a Dionex UltiMate 3000 instrument coupled with an electrospray ionization (ESI) QExactive mass spectrometer (Thermo Scientific). […] Mass spectra were recorded using targeted single ion monitoring with an isolation window of 10 m/z with automatic gain control set to a target of […] and a maximum accumulation time of 300 ms. […] Absolute concentrations were calculated by external calibration curves using pure standards. […]"}, "yeast": {"system": "yeast", "conditions": "Belenky et al. 2007; cited from earlier work"}, "patients with ALS": {"system": "patients with ALS", "conditions": "de la Rubia et al. 2019; cited from earlier work"}, "patients with PD": {"system": "patients with PD", "assay": "Safety, adverse events and compliance, phase I trial", "format": "in vivo", "protocol": "Thirty PD patients were randomly assigned (Block size 6, allocation 1:1) to 500 mg NR, provided in the form of nicotinamide riboside chloride (Niagen® from Chromadex), or placebo twice per day, 12 hours apart, using the electronic Case Report Form (Viedoc.com). The drug containers were sequentially marked by an independent third party. The NR (Niagen®) and placebo were provided by ChromaDex, USA. Each NR capsule contained 250 mg of NR. Placebo capsules contained microcrystalline cellulose. The vials and capsules containing NR and placebo were identical in shape, colour, and smell. Study drug compliance was calculated from counting returned number of study capsules and self-reporting. Participants, examining physicians, medical- and research personnel were blinded for the duration of the trial. Sample size was determined by comparing previous literature with respect to the primary objective.\nAt screening for trial entry, candidates underwent physical and neurological examination, brain MRI, and DaTscan. Eligible patients who entered the trial were assessed at baseline (visit 1, V1) and after four weeks of exposure to either NR or placebo (visit 2, V2). At both visits, patients underwent physical and neurological examination, including assessment by the Movement Disorder Society Unified Parkinson's Disease Rating Scale section I-IV (MDS-UPDRS), and biological sampling. MR-PET was performed within one week prior to visit 1, and at visit 2. All participants remained naïve for antiparkinson drugs for the duration of the trial. All clinical assessments were performed by a blinded movement disorders expert. Each patient was examined by the same neurologist at both visits. Methodological details on each procedure are provided below. Safety was monitored through routine clinical blood tests and registration of adverse events. Adverse events (AE) were recorded and scored by the investigative physician. Severity was scored according to severity grading defined by Common Terminology Criteria for Adverse Events v5.0 (CTCAE) as (1) mild, (2) moderate, (3) severe, (4) life-threatening or (5) death. The AE relation to the study drug was scored as (1) unrelated, (2) unlikely, (3) possible, (4) probable or (5) definitely."}},
  "data": [
    {"molecule": "NC(=O)c1ccc[n+]([C@@H]2O[C@H](CO)[C@@H](O)[C@H]2O)c1", "note": "[NR, nicotinamide riboside]", "values": [
      {"measurement": "CSF Me-2-PY levels", "setting": "NAD metabolome in CSF", "value": "increase"},
      {"measurement": "lifespan in yeast", "setting": "yeast", "value": "extends lifespan"},
      {"measurement": "clinical effect in patients with ALS", "setting": "patients with ALS", "value": "substantial clinical improvement"},
      {"measurement": "CTCAE Grading: Upper Respiratory infection", "setting": "patients with PD; 1 event, NR group", "value": "Grade 1 (1)"},
      {"measurement": "Adverse events (n): Anorexia", "setting": "patients with PD; human, in vivo, 4 weeks", "value": 1},
      {"measurement": "Adverse events (n): Cholelithiasis", "setting": "patients with PD; human, in vivo, 4 weeks", "value": 1},
      {"measurement": "Adverse events (n): Fatigue", "setting": "patients with PD; human, in vivo, 4 weeks", "value": 1},
      {"measurement": "Adverse events (n): Headache", "setting": "patients with PD; human, in vivo, 4 weeks", "value": 3},
      {"measurement": "Adverse events (n): Hematoma (leg)", "setting": "patients with PD; human, in vivo, 4 weeks", "value": 2},
      {"measurement": "Adverse events (n): Inguinal hernia", "setting": "patients with PD; human, in vivo, 4 weeks", "value": 1},
      {"measurement": "Adverse events (n): Leg Pain", "setting": "patients with PD; human, in vivo, 4 weeks", "value": 1},
      {"measurement": "Adverse events (n): Nausea", "setting": "patients with PD; human, in vivo, 4 weeks", "value": 1},
      {"measurement": "Adverse events (n): Upper Respiratory infection", "setting": "patients with PD; human, in vivo, 4 weeks", "value": 1},
      {"measurement": "CTCAE Grading: Anorexia", "setting": "patients with PD; human, in vivo, 4 weeks", "value": "Grade 1 (1)"},
      {"measurement": "CTCAE Grading: Cholelithiasis", "setting": "patients with PD; human, in vivo, 4 weeks", "value": "Grade 1 (1)"},
      {"measurement": "CTCAE Grading: Fatigue", "setting": "patients with PD; human, in vivo, 4 weeks", "value": "Grade 1 (1)"},
      {"measurement": "CTCAE Grading: Headache", "setting": "patients with PD; human, in vivo, 4 weeks", "value": "Grade 1 (4)"},
      {"measurement": "CTCAE Grading: Inguinal hernia", "setting": "patients with PD; human, in vivo, 4 weeks", "value": "Grade 1 (1)"},
      {"measurement": "CTCAE Grading: Leg Pain", "setting": "patients with PD; human, in vivo, 4 weeks", "value": "Grade 1 (1)"},
      {"measurement": "CTCAE Grading: Nausea", "setting": "patients with PD; human, in vivo, 4 weeks", "value": "Grade 1 (1)"},
      {"measurement": "Causal Relationship to Study Drug: Anorexia", "setting": "patients with PD; human, in vivo, 4 weeks", "value": "Unlikely (1)"},
      {"measurement": "Causal Relationship to Study Drug: Cholelithiasis", "setting": "patients with PD; human, in vivo, 4 weeks", "value": "Unrelated (1)"},
      {"measurement": "Causal Relationship to Study Drug: Fatigue", "setting": "patients with PD; human, in vivo, 4 weeks", "value": "Unlikely (1)"},
      {"measurement": "Causal Relationship to Study Drug: Hematoma (leg)", "setting": "patients with PD; human, in vivo, 4 weeks", "value": "Unrelated (2)"},
      {"measurement": "Causal Relationship to Study Drug: Inguinal hernia", "setting": "patients with PD; human, in vivo, 4 weeks", "value": "Unrelated (1)"},
      {"measurement": "Causal Relationship to Study Drug: Leg Pain", "setting": "patients with PD; human, in vivo, 4 weeks", "value": "Unrelated (1)"},
      {"measurement": "Causal Relationship to Study Drug: Nausea", "setting": "patients with PD; human, in vivo, 4 weeks", "value": "Unlikely (1)"},
      {"measurement": "Causal Relationship to Study Drug: Upper Respiratory infection", "setting": "patients with PD; human, in vivo, 4 weeks", "value": "Unlikely (1)"},
      {"measurement": "severity and relatedness of reported adverse events", "setting": "patients with PD; in vivo", "value": "minor and considered to be unrelated to NR"},
      {"measurement": "subjects reporting adverse events", "setting": "patients with PD; in vivo", "value": "Seven"}
    ]}
  ]
}
